Reference: ChEMBL document CHEMBL1201862, “PubChem BioAssay data set” (2004)
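Five compound concentrations were applied to cells in 96-well plates for 48 hours; endpoints were derived by simple linear interpolation of the resulting dose-response curve. Here, GI50 denotes the concentration required for 50% inhibition of growth.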 Active and inactive are the calls of the source. No stated cut-off is given here; in the data, active = GI50 up to about 1.1 µM and inactive = higher.

Columns and labels:
Experiment in all cases: DTP human tumour cell line panel, 48 h
UACC-257 = tested on: UACC-257
SNB-19 = tested on: SNB-19
OVCAR-4 = tested on: OVCAR-4
RPMI-8226 = tested on: RPMI-8226
HT-29 = tested on: HT-29
NCI-H460 = tested on: NCI-H460
COLO 205 = tested on: COLO 205
SW-620 = tested on: SW-620
786-0 = tested on: 786-0
MOLT-4 = tested on: MOLT-4
LOX IMVI = tested on: LOX IMVI
CCRF-CEM = tested on: CCRF-CEM
OVCAR-5 = tested on: OVCAR-5
HCT-15 = tested on: HCT-15
NCI/ADR-RES = tested on: NCI/ADR-RES
HCC 2998 = tested on: HCC 2998
EKVX = tested on: EKVX
SK-OV-3 = tested on: SK-OV-3
SK-MEL-2 = tested on: SK-MEL-2
M14 = tested on: M14

Row | SMILES | GI50 (UACC-257) | GI50 (SNB-19) | GI50 (OVCAR-4) | GI50 (RPMI-8226) | GI50 (HT-29) | GI50 (NCI-H460) | GI50 (COLO 205) | GI50 (SW-620) | GI50 (786-0) | GI50 (MOLT-4) | GI50 (LOX IMVI) | GI50 (CCRF-CEM) | GI50 (OVCAR-5) | GI50 (HCT-15) [µM] | GI50 (NCI/ADR-RES) | GI50 (HCC 2998) | GI50 (EKVX) | GI50 (SK-OV-3) | GI50 (SK-MEL-2) | GI50 (M14)
1 | O=C(Nc1nc(C23CC4CC(CC(C4)C2)C3)cs1)c1cc2ccc(O)cc2oc1=O | 15.6 µM (inactive) | 18.4 µM (inactive) | 8.26 µM (inactive) | 5.35 µM (inactive) | 14.4 µM (inactive) | 6.5 µM (inactive) | 5.36 µM (inactive) | 10.3 µM (inactive) | 11.6 µM (inactive) | 5.9 µM (inactive) | 8.07 µM (inactive) | 14.7 µM (inactive) | 21 µM (inactive) | 4.46 | 11.1 µM (inactive) | 10.6 µM (inactive) | 13.2 µM (inactive) | – | – | –
2 | Nc1ccccc1CCCC(=O)O | > 100 µM (inactive) | > 100 µM (inactive) | > 100 µM (inactive) | > 100 µM (inactive) | > 100 µM (inactive) | > 100 µM (inactive) | > 100 µM (inactive) | > 100 µM (inactive) | > 100 µM (inactive) | > 100 µM (inactive) | > 100 µM (inactive) | > 100 µM (inactive) | > 100 µM (inactive) | > 100 | > 100 µM (inactive) | > 100 µM (inactive) | – | > 100 µM (inactive) | > 100 µM (inactive) | > 100 µM (inactive)
3 | NC(CCCCP(=O)(O)O)C(=O)O (stereo not drawn) | > 100 µM (inactive) | > 100 µM (inactive) | > 100 µM (inactive) | > 100 µM (inactive) | > 100 µM (inactive) | > 100 µM (inactive) | > 100 µM (inactive) | > 100 µM (inactive) | – | > 100 µM (inactive) | > 100 µM (inactive) | > 100 µM (inactive) | > 100 µM (inactive) | > 100 | > 100 µM (inactive) | > 100 µM (inactive) | > 100 µM (inactive) | > 100 µM (inactive) | > 100 µM (inactive) | > 100 µM (inactive)
4 | CN(C)CCNC(=O)c1cc([N+](=O)[O-])cc2c1Oc1ccccc1O2 | 29.4 µM (inactive) | – | 40.6 µM (inactive) | 18.6 µM (inactive) | 17.3 µM (inactive) | 4.23 µM (inactive) | 13.7 µM (inactive) | 11.9 µM (inactive) | 15.6 µM (inactive) | 3.94 µM (inactive) | 12.9 µM (inactive) | 17.8 µM (inactive) | 40.9 µM (inactive) | > 10 | 23.9 µM (inactive) | 3.79 µM (inactive) | 56.1 µM (inactive) | – | 18.2 µM (inactive) | 31.5 µM (inactive)
